{
  "source": "patent US5529989A",
  "about": "(Arizona Board of Regents acting on behalf of Arizona State …, priority 1995, dated 1996)",
  "key": {"[1]": {"test": "stability of the phosphoric acid", "assay_type": "physicochemical", "settings": "isolated after hydrogenolysis"}, "cancer cell": {"tested_on": "cancer cell", "test": "cancer cell growth inhibitory comparison of pancratistatin with its phosphate prodrug", "assay_type": "cell-based", "settings": "versus pancratistatin (1)", "experimental": "(§1) There is no mathematical difference between ED50 and GI50, which are both calculated using the same formula. The only difference is historical usage.\n(§2) Each drug is tested at five (5) doses: 100--10--1--0.1--0.01 μg/ml. Percent Growths are calculated for each dose. […] The log of the dose is used during the regression computation.\n(§3) At the start of an experiment, cells from the in vitro cell cultures are inoculated into the appropriate tubes or microtiter plates. One set of control tubes/plates is immediately counted to determine the number of cells at the start of the experiment. This is the \"baseline count\" or \"Tzero reading\". At the end of the experiment (48 hours later) a second set of control tubes/plates is analyzed to determine the \"Control Growth\" value. The growth (or death) of cells relative to the initial quantity of cells is used to define the \"Percent of Growth\"."}, "[2]": {"tested_on": "murine P388 lymphocytic leukemia cell line", "test": "growth inhibition of murine P388 lymphocytic leukemia cell line in vitro", "assay_type": "cell-based", "experimental": "as §1, §2, §3"}, "water solubility": {"test": "water solubility", "assay_type": "physicochemical"}, "[3]": {"tested_on": "U.S. National Cancer Institute's (NCI) panel of sixty human cancer cell lines", "test": "cancer cell growth inhibition, NCI panel of sixty human cancer cell lines", "assay_type": "cell-based", "experimental": "as §1\nTotal Growth Inhibition (\"TGI\"), is the drug dose needed to yield zero percent growth, i.e., just as many cells at the end of the experiment as were present in the beginning. Whether just as many cells were killed as were produced (steady state), or no growth occurred (total inhibition), cannot be distinguished.\nas §2, §3"}, "[4]": {"tested_on": "murine P388 lymphocytic leukemia cell line", "settings": "from U.S. Pat. No. 4,985,436, cited from earlier work"}, "[5]": {"settings": "cited from earlier work"}, "[6]": {"tested_on": "M5074 murine ovary sarcoma", "settings": "0.38 to 3.0 mg active reagent/kg host body weight; from U.S. Pat. No. 4,985,436; cited from earlier work"}, "[7]": {"tested_on": "M5074 murine ovary sarcoma", "settings": "6 mg/kg host body weight; from U.S. Pat. No. 4,985,436; cited from earlier work"}, "[8]": {"tested_on": "murine P388 lymphocytic leukemia", "settings": "0.75-12.5 mg/kg host body weight, from U.S. Pat. No. 4,985,436; cited from earlier work"}, "[9]": {"tested_on": "experimental melanoma and ovary carcinoma", "settings": "cited from earlier work"}, "RNA viruses": {"tested_on": "RNA viruses", "settings": "cited from earlier work"}},
  "note": "“Also recorded” adds a separate entry of the source.",
  "data": [
    {"molecule": "CC(=O)O[C@@H]1[C@@H](OC(C)=O)[C@H](OC(C)=O)[C@@H]2c3cc4c(c(OP(=O)(O)O)c3C(=O)N[C@H]2[C@@H]1OC(C)=O)OCO4", "note": "[4b, 7-phosphoryl-pancratistatin tetraacetate]", "values": [
      {"measurement": "stability", "setting": "[1]", "result": "unstable"}
    ]},
    {"molecule": "O=C1N[C@H]2[C@H](O)[C@H](O)[C@@H](O)[C@H](O)[C@@H]2c2cc3c(c(OP(=O)(O)O)c21)OCO3", "note": "[compound (5), Disodium 7-Phosphoryl-Pancratistatin]", "values": [
      {"measurement": "cancer cell growth inhibition compared with pancratistatin (1)", "setting": "cancer cell", "result": "same cancer cell growth inhibition as pancratistatin (1); also recorded: very comparable results"},
      {"measurement": "GI50", "setting": "[2]; Mus musculus, 48 h, murine P388 lymphocytic leukemia cell line, dose needed to reduce the percent growth to 50%, read-out: ED50 (the source's name)", "result": 0.032, "unit": "µg/mL"},
      {"measurement": "ED50 compared with pancratistatin (1)", "setting": "[2]; murine P388 lymphocytic leukemia, versus pancratistatin (1)", "result": "essentially comparable to that found for pancratistatin (1)"},
      {"measurement": "solubility", "setting": "water solubility", "result": "> 230", "unit": "mg/mL"},
      {"measurement": "direct comparison of phosphate (5) and pancratistatin (1)", "setting": "[3]", "result": "comparable results for both compounds"}
    ]},
    {"molecule": "O=C1N[C@H]2[C@H](O)[C@H](O)[C@@H](O)[C@H](O)[C@@H]2c2cc3c(c(O)c21)OCO3", "note": "[pancratistatin]", "values": [
      {"measurement": "ED50", "setting": "[4]; P388 in vitro cell line, 2880 min", "result": 0.001, "unit": "µg/mL"},
      {"measurement": "inhibition of growth of P388 in vitro cell line (in words)", "setting": "[4]", "result": "markedly inhibited growth"},
      {"measurement": "solubility in water (in words)", "setting": "[5]", "result": "at best sparingly soluble in water"},
      {"measurement": "life extension", "setting": "[6]", "result": "53% to 84"},
      {"measurement": "cure rate", "setting": "[7]", "result": 50, "unit": "%"},
      {"measurement": "direct comparison of phosphate (5) and pancratistatin (1)", "setting": "[3]", "result": "comparable results for both compounds"},
      {"measurement": "life extension", "setting": "[8]", "result": "38-106%"},
      {"measurement": "activity against experimental melanoma and ovary carcinoma", "setting": "[9]", "result": "potent activity"},
      {"measurement": "activity against a range of RNA viruses", "setting": "RNA viruses", "result": "activity against a range of RNA viruses"}
    ]}
  ]
}
